Results as given in patent US20160046618A1, “Cyclopropyl Fused Thiazin-2-Amine Compounds as Beta-Secretase Inhibitors and Methods of Use” (AMGEN INC., priority 2014, published 2016).
Read-outs that look alike come from different tables or passages of the source.

Tests used:
[1] = tested on: Aβ40 in conditioned medium of cells stably expressing Amyloid Precursor Protein (APP); assay: In vitro BACE-1 cell-based assay (Aβ40 sandwich ELISA); details: read-out: IC50 IP (μM) BACE1 cell
How it was run: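 Read-out: time-resolved fluorescence (Streptavidin-Europium) of Aβ40 captured by pAb40 and detected with biotinylated 6E10 from supernatants of APP-stable cells. Cells were exposed to compound for 24 h, 10-point dose response, top dose 100 μM or 10 μM, 0.1% DMSO. IC50 fitted to percent of control.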

Recombinant Cat D = Recombinant Cat D (Homo sapiens (Human), UniProt P07339); assay: In vitro enzymatic Cathepsin D (Cat D) FRET assay; type: biochemical; details: read-out: IC50 IP (μM) CatD
How it was run: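 CHO-expressed enzyme; buffer 0.05 M citrate pH 3.5, 5 mM CHAPS, 10% DMSO final. Start with FRET substrate 20 nM, 1 h incubation, Tris stop (pH to neutral), fluorescence ex 500 nm/em 580 nm.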

human recombinant BACE1 = human recombinant BACE1 (Homo sapiens (Human), UniProt P56817); assay: In vitro enzymatic BACE1 FRET assay; type: biochemical; details: read-out: IC50 IP (μM) BACE1 enzyme
How it was run: (§1)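 Read-out: dequenched fluorescence, excitation 488 nm, emission 590 nm, after proteolysis of a quenched peptide spanning the BACE cleavage site. Substrate at 50 nM, 1 h incubation, termination by Tris addition to neutral pH.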

human recombinant BACE2 = human recombinant BACE2 (Homo sapiens (Human), UniProt Q9Y5Z0); assay: In vitro enzymatic BACE2 FRET assay; type: biochemical; details: read-out: IC50 IP (μM) BACE2 enzyme
How it was run: as §1

Chain of human recombinant BACE1 (P56817 46-501): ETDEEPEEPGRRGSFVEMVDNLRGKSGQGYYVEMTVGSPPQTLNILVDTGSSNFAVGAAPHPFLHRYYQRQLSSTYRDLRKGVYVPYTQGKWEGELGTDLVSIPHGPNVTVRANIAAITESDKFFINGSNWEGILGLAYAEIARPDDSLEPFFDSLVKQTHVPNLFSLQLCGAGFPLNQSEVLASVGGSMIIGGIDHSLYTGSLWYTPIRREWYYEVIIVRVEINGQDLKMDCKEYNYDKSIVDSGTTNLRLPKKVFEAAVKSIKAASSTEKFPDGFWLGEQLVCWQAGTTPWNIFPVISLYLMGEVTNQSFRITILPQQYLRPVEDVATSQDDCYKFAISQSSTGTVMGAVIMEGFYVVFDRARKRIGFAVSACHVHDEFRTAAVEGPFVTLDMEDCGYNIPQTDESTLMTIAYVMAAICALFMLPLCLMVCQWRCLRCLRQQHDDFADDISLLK
Chain of human recombinant BACE2 (Q9Y5Z0 63-518): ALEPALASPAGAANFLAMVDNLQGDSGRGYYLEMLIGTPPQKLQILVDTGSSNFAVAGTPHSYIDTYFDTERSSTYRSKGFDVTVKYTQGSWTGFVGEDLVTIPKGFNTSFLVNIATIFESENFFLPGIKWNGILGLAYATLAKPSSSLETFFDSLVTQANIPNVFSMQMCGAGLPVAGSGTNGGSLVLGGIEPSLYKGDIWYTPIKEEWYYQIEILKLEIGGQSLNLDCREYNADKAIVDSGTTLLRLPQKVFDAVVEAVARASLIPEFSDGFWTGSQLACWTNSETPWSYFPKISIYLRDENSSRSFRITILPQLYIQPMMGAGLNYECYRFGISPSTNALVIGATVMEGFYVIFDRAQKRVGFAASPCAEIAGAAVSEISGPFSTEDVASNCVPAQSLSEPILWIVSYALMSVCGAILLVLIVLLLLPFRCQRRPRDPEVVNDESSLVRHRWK
Chain of Recombinant Cat D (P07339 65-412): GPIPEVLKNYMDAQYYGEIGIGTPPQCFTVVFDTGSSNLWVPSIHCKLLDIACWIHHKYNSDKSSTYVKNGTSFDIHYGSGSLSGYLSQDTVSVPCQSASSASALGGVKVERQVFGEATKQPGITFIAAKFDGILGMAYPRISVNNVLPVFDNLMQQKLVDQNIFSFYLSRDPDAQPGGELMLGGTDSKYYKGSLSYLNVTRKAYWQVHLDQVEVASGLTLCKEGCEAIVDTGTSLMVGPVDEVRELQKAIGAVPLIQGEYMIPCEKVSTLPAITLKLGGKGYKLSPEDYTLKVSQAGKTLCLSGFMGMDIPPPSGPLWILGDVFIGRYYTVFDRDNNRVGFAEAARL

IC50 [1] | IC50 (Recombinant Cat D) | IC50 (human recombinant BACE1) | IC50 (human recombinant BACE2) | IC50 ([1]; BACE1 cell-based assay) | IC50 (Recombinant Cat D; Cathepsin D FRET enzyme assay) | IC50 (human recombinant BACE1; BACE1 FRET enzyme assay) | IC50 (human recombinant BACE2; BACE2 FRET enzyme assay) | Structure (SMILES)
0.00635 µM | 467 µM | 0.00228 µM | 0.0249 µM |  |  |  |  | COC[C@]12C[C@H]1[C@@](C)(c1cc(NC(=O)c3ncc(OCc4ncco4)nc3C)cc(F)c1F)N=C(N)S2 [Example 863, N-(3-((1S,5S,6S)-3-amino-1-(methoxymethyl)-5-methyl-2-thia-4-azabicyclo[4.1.0]hept-3-en-5-yl)-4,5-difluorophenyl)-3-methyl-5-(1,3-oxazol-2-ylmethoxy)-2-pyrazinecarboxamide]
0.00121 µM | 224 µM | 0.00143 µM | 0.023 µM |  |  |  |  | CN(C)C(=O)/C=C/[C@]12C[C@H]1[C@@](CF)(c1cc(Nc3nccc4nc(OCc5ncco5)cnc34)ccc1F)N=C(N)S2 [Example 769, (2E)-3-((1R,5S,6S)-3-amino-5-(fluoromethyl)-5-(2-fluoro-5-((2-(1,3-oxazol-2-ylmethoxy)pyrido[3,4-b]pyrazin-5-yl)amino)phenyl)-2-thia-4-azabicyclo[4.1.0]hept-3-en-1-yl)-N,N-dimethyl-2-propenamide]
0.0309 µM | > 400 µM | 0.0032 µM | 0.0669 µM |  |  |  |  | COC[C@H](C)Oc1cnc(C(=O)Nc2cc(F)c(F)c([C@@]3(C)N=C(N)S[C@@]4(C#N)C[C@H]43)c2)cn1 [Example 1010, N-(3-((1S,5S,6S)-3-amino-1-cyano-5-methyl-2-thia-4-azabicyclo[4.1.0]hept-3-en-5-yl)-4,5-difluorophenyl)-5-(((S)-1-methoxypropan-2-yl)oxy)pyrazine-2-carboxamide]
0.73 µM | 460 µM | 0.00702 µM | 0.00484 µM |  |  |  |  | COC[C@]12C[C@H]1[C@@](C)(c1cc(NC(=O)c3cnc(Cl)cn3)cc(F)c1F)N=C(N)S2 [Example 1007]
0.00174 µM | > 400 µM | 0.00285 µM | 0.154 µM |  |  |  |  | C[C@]1(c2cc(Nc3ncnc4cc(OCc5ncco5)cnc34)cnc2F)N=C(N)S[C@@]2(CC#N)C[C@H]21 [Example 608, ((1R,5S,6S)-3-amino-5-(2-fluoro-5-((7-(1,3-oxazol-2-ylmethoxy)pyrido[3,2-d]pyrimidin-4-yl)amino)-3-pyridinyl)-5-methyl-2-thia-4-azabicyclo[4.1.0]hept-3-en-1-yl)acetonitrile]
0.0256 µM | > 400 µM | 0.00756 µM | 0.142 µM |  |  |  |  | Cc1cc(OCc2ncco2)cnc1C(=O)Nc1ccc(F)c([C@@]2(C)N=C(N)S[C@@]3(CF)C[C@H]32)c1 [Example 652, N-(3-((1S,5S,6S)-3-amino-1-(fluoromethyl)-5-methyl-2-thia-4-azabicyclo[4.1.0]hept-3-en-5-yl)-4-fluorophenyl)-3-methyl-5-(1,3-oxazol-2-ylmethoxy)-2-pyridinecarboxamide]
0.0197 µM | 463 µM | 0.00112 µM | 0.018 µM |  |  |  |  | C#CCOc1cnc(C(=O)Nc2cc(F)c(F)c([C@@]3(C)N=C(N)S[C@@]4(C(F)F)C[C@@H]34)c2)c(C)c1 [Example 685, N-(3-((1S,5S,6S)-3-amino-1-(difluoromethyl)-5-methyl-2-thia-4-azabicyclo[4.1.0]hept-3-en-5-yl)-4,5-difluorophenyl)-3-methyl-5-(2-propyn-1-yloxy)-2-pyridinecarboxamide]
0.00153 µM | 1250 µM | 0.00152 µM | 0.198 µM |  |  |  |  | Cc1noc(COc2cnc(C(=O)Nc3cc(C)c(F)c([C@@]4(C)N=C(N)S[C@@]5(C(F)F)C[C@@H]45)c3)cn2)n1 [Example 1075, N-(3-((1S,5S,6S)-3-amino-1-(difluoromethyl)-5-methyl-2-thia-4-azabicyclo[4.1.0]hept-3-en-5-yl)-4-fluoro-5-methylphenyl)-5-((3-methyl-1,2,4-oxadiazol-5-yl)methoxy)pyrazine-2-carboxamide]
0.02 µM | 91.3 µM | 0.00156 µM | 0.0326 µM |  |  |  |  | Cc1nc(COc2cnc3c(Nc4cc(F)c(F)c([C@@]5(C)N=C(N)S[C@@]6(C(F)F)C[C@@H]56)c4)nccc3n2)co1 [Example 870, N-(3-((1S,5S,6S)-3-amino-1-(difluoromethyl)-5-methyl-2-thia-4-azabicyclo[4.1.0]hept-3-en-5-yl)-4,5-difluorophenyl)-2-((2-methyl-1,3-oxazol-4-yl)methoxy)pyrido[3,4-b]pyrazin-5-amine]
 |  |  |  | 0.094 µM | 720 µM | 0.0197 µM | 0.023 µM | C[C@]1(c2cc(Nc3ncnc4cc(C#N)cnc34)ccc2F)N=C(N)S[C@@H]2[C@H]1C2(F)F [Example 101, 4-((3-((1R,5S,6R)-3-amino-7,7-difluoro-5-methyl-2-thia-4-azabicyclo[4.1.0]hept-3-en-5-yl)-4-fluorophenyl)amino)pyrido[3,2-d]pyrimidine-7-carbonitrile]
0.00819 µM | 349 µM | 0.00936 µM | 0.14 µM |  |  |  |  | COC[C@]12C[C@H]1[C@@](C)(c1cc(Nc3nccc4nc(OCc5ncccn5)cnc34)cc(F)c1F)N=C(N)S2 [Example 881, N-(3-((1S,5S,6S)-3-amino-1-(methoxymethyl)-5-methyl-2-thia-4-azabicyclo[4.1.0]hept-3-en-5-yl)-4,5-difluorophenyl)-2-(2-pyrimidinylmethoxy)pyrido[3,4-b]pyrazin-5-amine]
0.0167 µM | 603 µM | 0.00192 µM | 0.00203 µM |  |  |  |  | CON(C)C(=O)[C@]12C[C@H]1[C@@](C)(c1cc(Nc3ncnc4cc(Cl)cnc34)cc(F)c1F)N=C(N)S2 [Example 901, (1S,5S,6S)-3-amino-5-(5-((7-chloropyrido[3,2-d]pyrimidin-4-yl)amino)-2,3-difluorophenyl)-N-methoxy-N,5-dimethyl-2-thia-4-azabicyclo[4.1.0]hept-3-ene-1-carboxamide]
0.0137 µM | > 400 µM | 0.0041 µM | 0.0061 µM |  |  |  |  | COC[C@]12C[C@H]1[C@@](C)(c1cc(NC(=O)c3ccc(Cl)cn3)ccc1F)N=C(N)S2 [Example 833, N-(3-((1S,5S,6S)-3-amino-1-(methoxymethyl)-5-methyl-2-thia-4-azabicyclo[4.1.0]hept-3-en-5-yl)-4-fluorophenyl)-5-chloro-2-pyridinecarboxamide]
0.00128 µM | 1840 µM | 0.00299 µM | 0.0842 µM |  |  |  |  | C#CCOc1cnc2c(Nc3ccc(F)c([C@@]4(C)N=C(N)S[C@@]5(CF)C[C@H]54)c3)ncnc2c1 [Example 824, N-(3-((1S,5S,6S)-3-amino-1-(fluoromethyl)-5-methyl-2-thia-4-azabicyclo[4.1.0]hept-3-en-5-yl)-4-fluorophenyl)-7-(2-propyn-1-yloxy)pyrido[3,2-d]pyrimidin-4-amine]
0.00126 µM | 297 µM | 0.000676 µM | 0.0207 µM |  |  |  |  | C[C@]1(c2cc(NC(=O)c3cnc(OCc4ncco4)cn3)cc(F)c2F)N=C(N)S[C@@]2(CF)C[C@H]21 [Example 811, N-(3-((1S,5S,6S)-3-amino-1-(fluoromethyl)-5-methyl-2-thia-4-azabicyclo[4.1.0]hept-3-en-5-yl)-4,5-difluorophenyl)-5-(1,3-oxazol-2-ylmethoxy)-2-pyrazinecarboxamide]
 |  |  |  | 0.00226 µM | 1400 µM | 0.00206 µM | 0.00109 µM | NC1=N[C@](CF)(c2cc(NC(=O)c3ccc(Cl)cn3)cc(F)c2F)[C@@H]2C[C@]2(CO)S1 [Example 31, N-(3-((1S,5S,6S)-3-amino-5-(fluoromethyl)-1-(hydroxymethyl)-2-thia-4-azabicyclo[4.1.0]hept-3-en-5-yl)-4,5-difluorophenyl)-5-chloropicolinamide]
0.015 µM | 1390 µM | 0.004 µM | 0.0224 µM |  |  |  |  | C[C@]1(c2cc(NC(=O)c3cnc(OCC(F)(F)F)cn3)cc(F)c2F)N=C(N)S[C@@]2(C#N)C[C@H]21 [Example 940, N-(3-((1S,5S,6S)-3-amino-1-cyano-5-methyl-2-thia-4-azabicyclo[4.1.0]hept-3-en-5-yl)-4,5-difluorophenyl)-5-(2,2,2-trifluoroethoxy)-2-pyrazinecarboxamide]
0.0144 µM | 715 µM | 0.00579 µM | 0.00382 µM |  |  |  |  | NC1=N[C@](CF)(c2cc(NC(=O)c3ccc(Cl)cn3)ccc2F)[C@@H]2C[C@]2(COCC(F)(F)F)S1 [Example 954, N-(3-((1S,5S,6S)-3-amino-5-(fluoromethyl)-1-((2,2,2-trifluoroethoxy)methyl)-2-thia-4-azabicyclo[4.1.0]hept-3-en-5-yl)-4-fluorophenyl)-5-chloro-2-pyridinecarboxamide]
0.00166 µM | 861 µM | 0.000931 µM | 0.0291 µM |  |  |  |  | C[C@]1(c2cc(Nc3nccc4nc(OCc5ncco5)cnc34)cnc2F)N=C(N)S[C@@]2(C(F)F)C[C@@H]12 [Example 654, N-(5-((1S,5S,6S)-3-amino-1-(difluoromethyl)-5-methyl-2-thia-4-azabicyclo[4.1.0]hept-3-en-5-yl)-6-fluoro-3-pyridinyl)-2-(1,3-oxazol-2-ylmethoxy)pyrido[3,4-b]pyrazin-5-amine]
